Test results from patent publication US20140080772A1, “TREATMENTS FOR MELANOMA” (The Board of Regents of the University of Texas System, priority 2012, published 2014).
Where two headings read alike, the source gives them in different places.

Assays:
WT Bcr-Abl [1] = target: T1, WT Bcr-Abl (Homo sapiens, UniProt P00519); conditions: read-out: IC50, Bcr-Abl autophosphorylation and downstream kinase activity; K562 cells; cited from earlier work
Target sequence in this assay (P00519 with tags, fused parts or gaps): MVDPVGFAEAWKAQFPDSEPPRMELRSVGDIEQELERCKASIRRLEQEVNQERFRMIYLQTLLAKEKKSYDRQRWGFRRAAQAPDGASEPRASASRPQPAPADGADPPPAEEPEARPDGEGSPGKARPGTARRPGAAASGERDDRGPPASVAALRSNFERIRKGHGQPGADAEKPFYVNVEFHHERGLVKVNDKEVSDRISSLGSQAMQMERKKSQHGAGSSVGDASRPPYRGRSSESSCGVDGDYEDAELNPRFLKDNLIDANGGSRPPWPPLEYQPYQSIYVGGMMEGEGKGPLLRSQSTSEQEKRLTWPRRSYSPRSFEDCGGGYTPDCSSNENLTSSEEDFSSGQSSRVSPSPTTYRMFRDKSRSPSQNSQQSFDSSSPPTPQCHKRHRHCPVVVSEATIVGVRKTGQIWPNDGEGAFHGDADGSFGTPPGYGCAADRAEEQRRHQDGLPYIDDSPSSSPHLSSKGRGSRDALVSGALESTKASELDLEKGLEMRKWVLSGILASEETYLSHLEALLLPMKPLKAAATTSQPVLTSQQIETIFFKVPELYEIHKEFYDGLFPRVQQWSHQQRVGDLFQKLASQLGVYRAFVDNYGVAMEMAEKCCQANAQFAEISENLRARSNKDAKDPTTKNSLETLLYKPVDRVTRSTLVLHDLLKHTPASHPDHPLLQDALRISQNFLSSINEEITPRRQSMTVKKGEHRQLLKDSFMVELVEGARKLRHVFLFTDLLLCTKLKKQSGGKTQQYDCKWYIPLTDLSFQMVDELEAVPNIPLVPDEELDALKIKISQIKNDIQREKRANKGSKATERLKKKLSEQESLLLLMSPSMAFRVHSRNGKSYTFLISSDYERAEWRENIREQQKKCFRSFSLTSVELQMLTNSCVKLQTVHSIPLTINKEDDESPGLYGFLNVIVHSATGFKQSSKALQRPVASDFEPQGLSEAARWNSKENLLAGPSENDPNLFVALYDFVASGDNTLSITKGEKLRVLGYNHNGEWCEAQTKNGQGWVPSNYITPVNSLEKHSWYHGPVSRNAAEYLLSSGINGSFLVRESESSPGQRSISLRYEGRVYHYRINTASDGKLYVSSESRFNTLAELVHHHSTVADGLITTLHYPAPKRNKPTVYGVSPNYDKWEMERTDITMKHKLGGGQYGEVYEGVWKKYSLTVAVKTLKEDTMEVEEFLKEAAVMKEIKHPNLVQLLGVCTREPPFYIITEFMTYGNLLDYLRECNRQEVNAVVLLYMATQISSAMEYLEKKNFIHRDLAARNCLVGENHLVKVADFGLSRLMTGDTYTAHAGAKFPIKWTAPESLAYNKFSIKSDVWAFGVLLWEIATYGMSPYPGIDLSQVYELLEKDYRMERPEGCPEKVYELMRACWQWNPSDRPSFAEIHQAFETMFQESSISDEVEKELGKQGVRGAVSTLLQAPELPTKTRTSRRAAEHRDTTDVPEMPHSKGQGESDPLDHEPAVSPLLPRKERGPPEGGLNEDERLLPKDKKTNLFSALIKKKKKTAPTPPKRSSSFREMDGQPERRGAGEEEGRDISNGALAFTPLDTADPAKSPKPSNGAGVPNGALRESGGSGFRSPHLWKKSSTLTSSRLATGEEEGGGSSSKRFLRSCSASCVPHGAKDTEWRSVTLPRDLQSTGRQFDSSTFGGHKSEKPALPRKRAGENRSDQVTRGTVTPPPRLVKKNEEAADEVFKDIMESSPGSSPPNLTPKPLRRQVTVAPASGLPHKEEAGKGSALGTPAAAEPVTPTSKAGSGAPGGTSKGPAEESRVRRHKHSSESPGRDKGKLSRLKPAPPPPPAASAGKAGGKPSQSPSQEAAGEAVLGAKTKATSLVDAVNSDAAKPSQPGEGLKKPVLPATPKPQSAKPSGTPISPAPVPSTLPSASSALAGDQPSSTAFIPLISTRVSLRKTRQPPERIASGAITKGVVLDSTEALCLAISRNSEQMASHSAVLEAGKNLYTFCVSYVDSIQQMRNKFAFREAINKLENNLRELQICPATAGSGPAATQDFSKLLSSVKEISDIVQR

WT Bcr-Abl [2] = target: T1, WT Bcr-Abl; conditions: read-out: IC50, Bcr-Abl autophosphorylation and downstream kinase activity; 293T cells; cited from earlier work
Target sequence in this assay (P00519 28-1130 limits assumed): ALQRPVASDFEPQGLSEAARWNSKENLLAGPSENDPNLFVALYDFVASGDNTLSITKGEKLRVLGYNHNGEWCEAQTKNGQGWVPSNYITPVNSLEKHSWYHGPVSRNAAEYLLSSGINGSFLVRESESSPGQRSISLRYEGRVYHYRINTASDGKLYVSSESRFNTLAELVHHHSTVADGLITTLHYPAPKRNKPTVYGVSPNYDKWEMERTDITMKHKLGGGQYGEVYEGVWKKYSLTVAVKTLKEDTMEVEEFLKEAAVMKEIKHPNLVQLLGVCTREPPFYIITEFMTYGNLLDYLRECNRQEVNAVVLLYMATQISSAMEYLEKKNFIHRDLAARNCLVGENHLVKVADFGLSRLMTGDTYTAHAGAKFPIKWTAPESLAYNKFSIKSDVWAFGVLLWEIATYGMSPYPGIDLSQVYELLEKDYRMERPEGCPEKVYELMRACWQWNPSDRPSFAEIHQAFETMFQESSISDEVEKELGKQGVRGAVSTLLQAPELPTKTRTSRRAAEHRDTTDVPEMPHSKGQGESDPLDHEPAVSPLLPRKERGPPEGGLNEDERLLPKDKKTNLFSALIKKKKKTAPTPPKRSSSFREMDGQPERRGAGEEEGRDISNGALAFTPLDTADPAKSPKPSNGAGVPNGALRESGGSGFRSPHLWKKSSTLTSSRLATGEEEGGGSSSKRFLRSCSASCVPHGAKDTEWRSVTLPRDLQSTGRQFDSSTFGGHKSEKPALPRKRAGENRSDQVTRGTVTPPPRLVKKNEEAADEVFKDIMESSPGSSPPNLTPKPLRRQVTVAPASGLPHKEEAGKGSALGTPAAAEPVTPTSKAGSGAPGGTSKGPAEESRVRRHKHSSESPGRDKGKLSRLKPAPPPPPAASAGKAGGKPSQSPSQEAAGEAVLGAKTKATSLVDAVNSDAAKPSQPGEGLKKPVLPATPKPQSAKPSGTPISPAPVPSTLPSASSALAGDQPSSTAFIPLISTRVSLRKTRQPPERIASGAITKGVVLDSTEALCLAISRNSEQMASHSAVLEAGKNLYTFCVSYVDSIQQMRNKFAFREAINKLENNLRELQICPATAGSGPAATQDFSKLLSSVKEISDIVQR

KU812 = conditions: 20 mg/kg/day; cited from earlier work
[3] = mouse, in vivo; cited from earlier work
PKCα = PKCα (Homo sapiens, UniProt P17252); conditions: cited from earlier work
[4] = system: JNK, glycogen synthase, MAPK, ERK2; conditions: rat adipocytes and L6 myotubes; cited from earlier work
[5] = system: primary melanomas (M715, M711, M741 and M405); assay: Dose response viability assay (CellTiter-Glo) on primary human melanoma cells; assay type: cell-based; conditions: 72 hr, triplicate
Description: (§1) Melanomas and hUCB were treated with 50 μM of cardiac glycosides or DMSO for 72 h in triplicates. Viability was measured with CellTiter-Glo. […] All error bars denote SD.
(§2) In these in vitro assays, cells were treated with various doses of cardiac glycosides or DMSO for 72 hr in triplicate. Viability was measured with CellTiter-Glo.
(§3) Again, cells were treated in vitro with various doses of RO 31-8220 or DMSO for 72 hr in triplicates. Viability was measured with CellTiter-Glo.

[6] = system: voltage-dependent Na+ channels; conditions: cited from earlier work
[7] = system: M481 metastatic melanoma cells; assay: M481 melanoma xenograft tumor growth in NSG mice; assay type: in vivo
Description: M481 metastatic melanoma cells were implanted in s.c. tissue on right flanks of NSG mice. […] Tumors were measured every 2-3 day with calipers.
(FIG. 6A) M481 efficiently metastasizing melanoma cells were implanted in s.c. tissue on right flanks of NSG mice. […] Tumors were measured every 2-3 day with calipers. Mean±SD is reported.
Subcutaneous injections of human melanoma cells were performed in each flank and the interscapular region of NOD.CB17-Prkdcscid Il2rgtm1Wjl/SzJ (NOD/SCID IL2Rγ^null, NSG) mice (Jackson Laboratories) in a final volume of 50 μl.
In these experiments metastatic melanoma cells were implanted in s.c. tissue on right flanks of NSG mice. […] Tumors were measured every 2-3 day with calipers and bioluminescence imaging was performed at day 14.
To address whether inhibition of Lyn kinase can block the ability of melanoma cells to grow in our xenograft model, they performed an in vivo drug treatment. NSG mice were injected with a 100-cell dose of a metastatic melanoma, M481, which expressed a GFP-luciferase construct. […] We tested two different doses, 4 mg/kg body mass/day and 20 mg/kg/day. Control mice were injected with 5% DMSO solution.

MAPKAP-K1b = MAPKAP-K1b (Homo sapiens, UniProt P51812); conditions: cited from earlier work
S6K1 = S6K1 (Homo sapiens, UniProt P23443); conditions: cited from earlier work
[8] = system: human melanocytes (hMEL) and human umbilical cord blood cells (hUCB)
Description: as §1, §2, §3

[9] = system: M214 metastatic melanoma cells; assay type: in vivo, NSG mice; conditions: digitoxin 0.5 mg/kg/day; dacarbazine 5 mg/kg every other day; alone or in combination
Description: M214 metastatic melanoma cells were implanted in s.c. tissue on right flanks of NSG mice. When tumors became palpable, mice were randomized to four different treatments. […] Control mice received equivalent volume of DMSO. […] Tumors were measured every 2-3 day with calipers. Mean^±SD is reported (*P<0.05, **P<0.005, ***P<0.0005, ****P<0.0001, ns: not significant; two-tailed Student's t test). […] The statistical significance of differences between mean values was assessed by the Student's t-test.
In these experiments, metastatic melanoma cells were injected subcutaneously in the right flanks of immunocompromised NSG mice. When tumors became palpable, mice were randomized to four different treatments. […] Control mice received equivalent volume of DMSO.

[10] = in vivo; cited from earlier work
[11] = 72 hr, triplicate, CellTiter-Glo

MAPKAP-K1b, sequence (P51812 whole entry, species assumed): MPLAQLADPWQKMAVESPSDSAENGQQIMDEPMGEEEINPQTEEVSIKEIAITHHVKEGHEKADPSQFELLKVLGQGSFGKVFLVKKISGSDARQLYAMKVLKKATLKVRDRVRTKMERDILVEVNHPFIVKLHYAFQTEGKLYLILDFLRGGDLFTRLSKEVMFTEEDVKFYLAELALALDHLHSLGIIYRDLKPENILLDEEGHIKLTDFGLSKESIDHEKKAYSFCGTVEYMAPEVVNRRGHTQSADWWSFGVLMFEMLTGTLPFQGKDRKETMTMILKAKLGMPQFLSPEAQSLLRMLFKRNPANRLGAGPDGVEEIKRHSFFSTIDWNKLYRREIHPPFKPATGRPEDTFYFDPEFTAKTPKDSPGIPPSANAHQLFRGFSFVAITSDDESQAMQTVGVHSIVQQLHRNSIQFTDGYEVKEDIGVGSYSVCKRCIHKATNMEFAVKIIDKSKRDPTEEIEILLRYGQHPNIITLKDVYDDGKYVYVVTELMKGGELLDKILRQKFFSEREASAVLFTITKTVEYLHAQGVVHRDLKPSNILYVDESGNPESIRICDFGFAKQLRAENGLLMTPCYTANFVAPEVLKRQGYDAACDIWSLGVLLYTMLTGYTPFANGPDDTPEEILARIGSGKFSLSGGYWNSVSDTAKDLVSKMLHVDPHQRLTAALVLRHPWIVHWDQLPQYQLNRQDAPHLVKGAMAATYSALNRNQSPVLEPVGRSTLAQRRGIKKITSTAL
S6K1, sequence (P23443 whole entry, species assumed): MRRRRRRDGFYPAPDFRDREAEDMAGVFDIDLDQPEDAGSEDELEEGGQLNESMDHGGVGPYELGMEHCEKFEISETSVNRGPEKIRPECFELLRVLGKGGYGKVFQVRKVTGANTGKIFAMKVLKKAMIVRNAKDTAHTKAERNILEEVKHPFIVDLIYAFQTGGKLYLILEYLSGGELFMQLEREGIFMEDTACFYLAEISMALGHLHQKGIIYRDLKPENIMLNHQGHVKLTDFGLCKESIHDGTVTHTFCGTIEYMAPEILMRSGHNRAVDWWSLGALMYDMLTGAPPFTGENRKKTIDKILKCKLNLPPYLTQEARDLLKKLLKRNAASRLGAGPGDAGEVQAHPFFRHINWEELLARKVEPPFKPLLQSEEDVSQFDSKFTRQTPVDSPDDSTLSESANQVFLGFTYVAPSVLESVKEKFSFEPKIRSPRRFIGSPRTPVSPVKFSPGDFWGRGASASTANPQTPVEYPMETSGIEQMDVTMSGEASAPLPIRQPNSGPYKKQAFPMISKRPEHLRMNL

Cc1ccc(NC(=O)c2ccc(CN3CC[C@H](N(C)C)C3)c(C(F)(F)F)c2)cc1Nc1nccc(-c2cncnc2)n1 [Bafetinib, bafetinib]
IC50 (WT Bcr-Abl [1]): 0.011 µM
IC50 (WT Bcr-Abl [2]): 0.022 µM
adverse effects (KU812): without adverse effects
bioavailability value (BA) [3]: 32%
maximal tolerated dose [3]: 200 mg/kg/day

Cn1cc(C2=C(c3cn(CCCSC(=N)N)c4ccccc34)C(=O)NC2=O)c2ccccc21 [RO 31-8220]
IC50 (PKCα): 0.033 µM
effect on JNK and glycogen synthase [4]: Activates
effect on MAPK and ERK2 [4]: inhibits
toxicity to primary melanomas (viability) [5]: toxic to all tested primary melanomas
inhibition of voltage-dependent Na+ channels [6]: in the micromolar range
tumor growth ([7]; RO 31-8220 3 mg/kg i.p. vs DMSO): inhibited the growth
IC50 (MAPKAP-K1b): 0.003 µM
IC50 (S6K1): 0.038 µM
toxicity to normal cells (viability) [8, 11]: not to normal cells

C[C@H]1O[C@@H](O[C@H]2[C@@H](O)C[C@H](O[C@H]3[C@@H](O)C[C@H](O[C@H]4CC[C@@]5(C)[C@H](CC[C@@H]6[C@@H]5CC[C@]5(C)[C@@H](C7=CC(=O)OC7)CC[C@]65O)C4)O[C@@H]3C)O[C@@H]2C)C[C@H](O)[C@@H]1O [digitoxin]
toxicity to primary melanomas (viability) [5]: toxic to all tested primary melanomas
tumor growth ([7]; digitoxin 0.5 mg/kg i.p. vs DMSO): inhibited the growth
toxicity to normal cells (viability) [8, 11]: not to normal cells
growth of human melanoma xenografts [9]: slowed the growth

C[C@H]1O[C@@H](O[C@H]2[C@@H](O)C[C@H](O[C@H]3[C@@H](O)C[C@H](O[C@H]4CC[C@@]5(C)[C@H](CC[C@@H]6[C@@H]5C[C@@H](O)[C@]5(C)[C@@H](C7=CC(=O)OC7)CC[C@]65O)C4)O[C@@H]3C)O[C@@H]2C)C[C@H](O)[C@@H]1O [digoxin]
toxicity to primary melanomas (viability) [5]: toxic to all tested primary melanomas
half-life [10]: about 36 hours
plasma concentration at which adverse effects are rare [10]: < 0.8 ng/mL
toxicity to normal cells (viability) [8]: not to normal cells

C[C@H]1O[C@@H](O[C@H]2[C@@H](O)C[C@H](O[C@H]3[C@@H](O)C[C@H](O[C@H]4CC[C@@]5(C)[C@H](CC[C@@H]6[C@@H]5CC[C@]5(C)[C@@H](C7=CC(=O)OC7)[C@@H](O)C[C@]65O)C4)O[C@@H]3C)O[C@@H]2C)C[C@H](O)[C@@H]1O [gitoxin]
toxicity to primary melanomas (viability) [5]: toxic to all tested primary melanomas
toxicity to normal cells (viability) [8, 11]: not to normal cells
